From patent publication US20260265195A1, “SARM1 MODULATORS, PREPARATIONS, AND USES THEREOF” (SIRONAX LTD, priority 2022, published 2026)

Target: T1, SARM1 (50-724) (Homo sapiens, UniProt Q6SZW1)
T1 construct: Purified SARM1 (50-724) with a final concentration of 2 nM
T1 sequence (Q6SZW1 50-724): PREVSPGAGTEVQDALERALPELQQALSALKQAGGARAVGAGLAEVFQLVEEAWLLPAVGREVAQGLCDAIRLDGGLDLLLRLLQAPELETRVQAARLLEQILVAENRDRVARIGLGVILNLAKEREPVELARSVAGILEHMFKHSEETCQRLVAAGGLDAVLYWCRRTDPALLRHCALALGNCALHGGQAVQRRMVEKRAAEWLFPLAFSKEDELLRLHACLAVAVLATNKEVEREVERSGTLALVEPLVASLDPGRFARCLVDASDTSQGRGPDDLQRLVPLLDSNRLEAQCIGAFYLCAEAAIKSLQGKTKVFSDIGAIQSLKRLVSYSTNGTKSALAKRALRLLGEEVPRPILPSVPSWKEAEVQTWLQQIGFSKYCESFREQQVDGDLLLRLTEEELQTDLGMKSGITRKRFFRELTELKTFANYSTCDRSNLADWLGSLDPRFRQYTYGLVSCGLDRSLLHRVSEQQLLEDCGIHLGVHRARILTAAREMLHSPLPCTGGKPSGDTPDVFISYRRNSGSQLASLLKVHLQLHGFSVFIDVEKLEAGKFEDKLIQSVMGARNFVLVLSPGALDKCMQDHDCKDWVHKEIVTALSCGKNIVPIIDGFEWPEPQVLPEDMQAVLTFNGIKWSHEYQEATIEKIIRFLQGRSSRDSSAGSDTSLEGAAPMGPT
Test: SARM1 (50-724) enzymatic assay (NMN-activated NAD+ hydrolysis, LC-MS/MS readout)
Assay type: biochemical
Conditions: purified SARM1 (50-724) 2 nM, 200 μM NMN activator, 100 μM NAD+ substrate, 1 h at room temperature, read-out: IC50 (SARM1 inhibitory activity)
Procedure, shortened: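 NMN-activated NAD+ hydrolysis: compound pre-incubated 15 min at room temperature with 2 nM SARM1 (50-724) at 1% DMSO in DPBS; 100 μM NAD+ plus 200 μM NMN added and reacted 1 h at RT. Acetonitrile quench, LC-MS/MS readout.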

IC50 | SMILES
≤ 100 nM | NC(=O)CN(C(=O)c1nc2cc(C(F)(F)F)ccc2[nH]1)c1cccc(Cl)c1Cl [Compound 141, N-(2-amino-2-oxoethyl)-N-(2,3-dichlorophenyl)-5-(trifluoromethyl)-1H-benzo[d]imidazole-2-carboxamide]
101 to 500 nM | O=C(c1nc2cc(C(F)(F)F)ccc2[nH]1)N(CCO)[C@@H]1CCCC[C@H]1OC(F)(F)F (racemic) [Compound 60, N-(2-hydroxyethyl)-N-((1R,2R)-2-(trifluoromethoxy)cyclohexyl)-5-(trifluoromethyl)-1H-benzo[d]imidazole-2-carboxamide]
501 to 1000 nM | Cc1ccc2[nH]c(C(=O)N(C)C3CCCC3)c(CC(N)=O)c2c1 [Compound 16, 3-(2-amino-2-oxoethyl)-N-cyclopentyl-N,5-dimethyl-1H-indole-2-carboxamide]
101 to 500 nM | Cc1c(Cl)ccnc1N(CCO)C(=O)c1nc2cc(C(F)(F)F)ccc2[nH]1 [Compound 145, N-(4-chloro-3-methylpyridin-2-yl)-N-(2-hydroxyethyl)-5-(trifluoromethyl)-1H-benzo[d]imidazole-2-carboxamide]
≥ 1000 nM | Cc1ccc2[nH]c(C(=O)N(C)C3C[C@@H](C)O[C@@H](C)C3)c(CO)c2c1 (stereo partly drawn) [Compound 42, N-((2R,6S)-2,6-dimethyltetrahydro-2H-pyran-4-yl)-3-(hydroxymethyl)-N,5-dimethyl-1H-indole-2-carboxamide]
≥ 1000 nM | COc1cc(OC)c2c(CO)c(C(=O)N(C)C3CCCC3)[nH]c2c1 [Compound 34, N-cyclopentyl-3-(hydroxymethyl)-4,6-dimethoxy-N-methyl-1H-indole-2-carboxamide]
≥ 1000 nM | Cc1ccc2[nH]c(C(=O)N(C)c3ccc(Cl)c(Cl)c3)c(CO)c2c1 [Compound 12]
≤ 100 nM | Cc1c(Cl)cncc1N(CCO)C(=O)c1nc2cc(C(F)(F)F)ccc2[nH]1 [Compound 148, N-(5-chloro-4-methylpyridin-3-yl)-N-(2-hydroxyethyl)-5-(trifluoromethyl)-1H-benzo[d]imidazole-2-carboxamide]
≤ 100 nM | O=C(c1nc2cc(C(F)(F)F)ccc2[nH]1)N(c1cn[nH]c1)c1cccc(Cl)c1Cl [Compound 127, N-(2,3-dichlorophenyl)-N-(1H-pyrazol-4-yl)-5-(trifluoromethyl)-1H-benzo[d]imidazole-2-carboxamide]
≤ 100 nM | CS(=O)(=O)CCN(C(=O)c1nc2cc(C(F)(F)F)ccc2[nH]1)c1cccc(F)c1Cl [Compound 229, N-(2-chloro-3-fluorophenyl)-N-(2-(methylsulfonyl)ethyl)-5-(trifluoromethyl)-1H-benzo[d]imidazole-2-carboxamide]
101 to 500 nM | O=C(c1nc2cc(Cl)cc(Cl)c2[nH]1)N(CC(F)(F)CO)c1cccc(F)c1Cl [Compound 235]
501 to 1000 nM | CN(C(=O)c1nc2c(C3CC3)cccc2[nH]1)C1CCCC1 [Compound 93, N-cyclopentyl-4-cyclopropyl-N-methyl-1H-benzo[d]imidazole-2-carboxamide]
≤ 100 nM | Cn1nc(N(CCO)C(=O)c2nc3cc(C(F)(F)F)ccc3[nH]2)c(Cl)c1Cl [Compound 110, N-(4,5-dichloro-1-methyl-1H-pyrazol-3-yl)-N-(2-hydroxyethyl)-5-(trifluoromethyl)-1H-benzo[d]imidazole-2-carboxamide]
≥ 1000 nM | Cn1nc(Cl)c(Cl)c1N(CCO)C(=O)c1nc2cc(C(F)(F)F)ccc2[nH]1 [Compound 126, N-(3,4-dichloro-1-methyl-1H-pyrazol-5-yl)-N-(2-hydroxyethyl)-5-(trifluoromethyl)-1H-benzo[d]imidazole-2-carboxamide]
≥ 1000 nM | CN(C(=O)c1cc2ccccc2[nH]1)C1CCCC1 [Compound 54, N-cyclopentyl-N-methyl-1H-indole-2-carboxamide]
≤ 100 nM | COCC1(CN(C(=O)c2nc3cc(C(F)(F)F)ccc3[nH]2)c2cccc(Cl)c2Cl)COC1 [Compound 200]
≥ 1000 nM | Cc1ccc2[nH]c(C(=O)NC3CCCC3)c(CO)c2c1 [Compound 26, N-cyclopenty1-3-(hydroxymethyl)-5-methyl-1H-indole-2-carboxamide]
101 to 500 nM | CC1(O)CC(N(C(=O)c2nc3cc(C(F)(F)F)ccc3[nH]2)c2cccc(F)c2Cl)C1 (stereo not shown) [Compound 239, N-(2-chloro-3-fluorophenyl)-N-(3-hydroxy-3-methylcyclobutyl)-5-(trifluoromethyl)-1H-benzo[d]imidazole-2-carboxamide]
≤ 100 nM | O=C(c1nc2cc(C(F)(F)F)cc(F)c2[nH]1)N(c1cccc(F)c1Cl)C1CCS(=O)(=O)CC1 [Compound 130]

IC50 | SMILES
≤ 100 nM | CC(=O)NCCN(C(=O)c1nc2cc(C(F)(F)F)ccc2[nH]1)c1cccc(Cl)c1Cl [Compound 146, N-(2-acctamidoethyl)-N-(2,3-dichlorophenyl)-5-(trifluoromethyl)-1H-benzo[d]imidazole-2-carboxamide]
≥ 1000 nM | Cc1cccc(N(C)C(=O)c2[nH]c3ccc(C)cc3c2CO)c1 [Compound 43, 3-(hydroxymethyl)-N,5-dimethyl-N-(m-tolyl)-1H-indole-2-carboxamidc]
≤ 100 nM | O=C(c1nc2cc(Cl)cc(F)c2[nH]1)N(CC(F)(F)CO)c1ccc(F)c(F)c1Cl [Compound 233]
≥ 1000 nM | CN(C(=O)c1nc2c(C#N)cccc2[nH]1)C1CCCC1 [Compound 95, 4-cyano-N-cyclopentyl-N-methyl-1H-benzo[d]imidazole-2-carboxamide]
501 to 1000 nM | Cc1ccc2[nH]c(C(=O)N(C)C3CCCC3)c(COc3nccs3)c2c1 [Compound 75, N-cyclopentyl-N,5-dimethyl-3-((thiazol-2-yloxy)methyl)-1H-indole-2-carboxamide]
≥ 1000 nM | O=C(c1nc2cc(C(O)C3CC3)ccc2[nH]1)N(CCO)c1cccc(Cl)c1Cl (racemic) [Compound 162]
≥ 1000 nM | Cc1ccc2[nH]c(C(=O)N(C)C3CC4CC4C3)nc2c1 (stereo not shown) [Compound 53, N-(bicyclo[3.1.0]hexan-1H-benzo[d]imidazole-2-carboxamide]
≤ 100 nM | O=C1NC(CN(C(=O)c2nc3cc(C(F)(F)F)ccc3[nH]2)c2cccc(F)c2Cl)CO1 (racemic) [Compound 238, N-(2-chloro-3-fluorophenyl)-N-((2-oxooxazolidin-4-yl)methyl)-5-(trifluoromethyl)-1H-benzo[d]imidazole-2-carboxamide]
≥ 1000 nM | Cc1cn[nH]c1-c1ccc2[nH]c(C(=O)N(CC3COC3)c3cccc(Cl)c3Cl)nc2c1 [Compound 124]
≤ 100 nM | NC(=O)C(F)(F)CN(C(=O)c1nc2cc(C(F)(F)F)ccc2[nH]1)c1cccc(Cl)c1Cl [Compound 107, N-(3-amino-2,2-difluoro-3-oxopropyl)-N-(2,3-dichlorophenyl)-5-(trifluoromethyl)-1H-benzo[d]imidazole-2-carboxamide]
101 to 500 nM | Cc1c(Cl)cncc1N(CC1(F)COC1)C(=O)c1nc2cc(C(F)(F)F)ccc2[nH]1 [Compound 184, N-(5-chloro-4-methylpyridin-3-yl)-N-((3-fluorooxetan-3-yl)methyl)-5-(trifluoromethyl)-1H-benzo[d]imidazole-2-carboxamide]
≥ 1000 nM | CCc1cccc2[nH]c(C(=O)N(C)C3CCCC3)nc12 [Compound 94, N-cyclopentyl-4-ethyl-N-methyl-1H-benzo[d]imidazole-2-carboxamide]
≤ 100 nM | O=C(c1nc2cc(-c3cscn3)ccc2[nH]1)N(CCO)c1cccc(Cl)c1Cl [Compound 161]
≥ 1000 nM | Cc1ccc2[nH]c(C(=O)N(C)c3ccc(C#N)cc3)c(CO)c2c1 [Compound 3, N-(4-cyanophenyl)-3-(hydroxymethyl)-N,5-dimethyl-1H-indole-2-carboxamide]
≤ 100 nM | CC(C)(O)CCN(C(=O)c1nc2cc(C(F)(F)F)ccc2[nH]1)c1cccc(Cl)c1Cl [Compound 198, N-(2,3-dichlorophenyl)-N-(3-hydroxy-3-methylbutyl)-5-(trifluoromethyl)-1H-benzo[d]imidazole-2-carboxamide]
≤ 100 nM | O=C(c1nc2cc(C(F)(F)F)ccc2[nH]1)N(CC1(O)CC1)c1cccc(Cl)c1Cl [Compound 197, N-(2,3-dichlorophenyl)-N-((1-hydroxycyclopropyl)methyl)-5-(trifluoromethyl)-1H-benzo[d]imidazole-2-carboxamide]
≤ 100 nM | Cn1nc(N(CC2COC2)C(=O)c2nc3cc(C(F)(F)F)ccc3[nH]2)c(Cl)c1Cl [Compound 111, N-(4,5-dichloro-1-methyl-1H-pyrazol-3-yl)-N-(oxetan-3-ylmethyl)-5-(trifluoromethyl)-1H-benzo[d]imidazole-2-carboxamide]
≤ 100 nM | Cc1ccc2[nH]c(C(=O)N(C)c3cccc(Cl)c3Cl)c(CO)c2c1 [Compound 1, N-(2,3-dichlorophenyl)-3-(hydroxymethyl)-N,5-dimethyl-1H-indole-2-carboxamide]
